# Source: patent publication US8142714B2, “Cleaning and disinfection of surgical and medical instruments and appliances” (Chemische Fabrik Dr. Weigert GmbH & Co. KG, priority 2002, dated 2012)
# Key:
# [1] = Surface tension as specified in DIN 53993; type: physicochemical; details: NaOH in deionized water, cleaner 1% by volume in Hamburg city water
# Method: The cleaning solution diluted in ready-to-use form preferably has a surface tension of less than 50 mN/m, preferably less than 40 mN/m, further preferably less than 35 mN/m, further preferably less than 30 mN/m. The surface tension is determined by the plate-ring method as specified in DIN 53993.
# The surface tension was determined as specified in DIN 53993 for the following liquids: […]
# [2] = Cleaning of roughened microscope slides dirtied with blood-egg yolk mixture, immersion bath; details: 50 mg blood-egg yolk mixture dried at 55° C. for 2 h; stirred immersion bath 10 min at room temperature; cleaner 1% strength by volume
# Method: Roughened microscope slides are dirtied with 50 mg of a blood-egg yolk mixture, dried at 55° C. for 2 h and then immersed in a stirred bath for 10 min at room temperature. The medium used for the immersion bath is deionized water, 0.1 N NaOH or a 1% strength by volume cleaning solution of the cleaning composition concentrate according to example 1. The residual amount of fouling then determined is 20% by weight for water, 35% by weight for 0.1 N NaOH and less than 5% by weight for the cleaner, as immersion bath medium used.
smiles,measurement,setting,value
"[Na+].[OH-] [0.1 N NaOH, NaOH]",surface tension,[1],72 mN/m
same,residual amount of fouling,[2],35 % by weight
